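96-well plates; 48 h exposure; 5 concentrations. Endpoints by linear interpolation between flanking doses. Not reached: highest tested concentration assigned. Definition used: TGI = concentration required for complete inhibition of growth.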
Experiments:
Assay in all cases: DTP human tumour cell line panel, 48 h
RPMI-8226 leukemia = test system: RPMI-8226 leukemia
MDA-N = test system: MDA-N
SK-MEL-5 melanoma = test system: SK-MEL-5 melanoma
SF-268 CNS = test system: SF-268 CNS
SNB-75 CNS = test system: SNB-75 CNS
UO-31 renal = test system: UO-31 renal
RXF 393 renal = test system: RXF 393 renal
U251 CNS = test system: U251 CNS
TK-10 renal = test system: TK-10 renal
CAKI-1 renal = test system: CAKI-1 renal
786-0 renal = test system: 786-0 renal
OVCAR-5 ovarian = test system: OVCAR-5 ovarian
IGROV1 ovarian = test system: IGROV1 ovarian
HT29 colon = test system: HT29 colon
OVCAR-4 ovarian = test system: OVCAR-4 ovarian
UACC-257 melanoma = test system: UACC-257 melanoma
EKVX NSCLC = test system: EKVX NSCLC
MDA-MB-435 = test system: MDA-MB-435

Row | SMILES | TGI (RPMI-8226 leukemia) | TGI (MDA-N) | TGI (SK-MEL-5 melanoma) | TGI (SF-268 CNS) | TGI (SNB-75 CNS) | TGI (UO-31 renal) | TGI (RXF 393 renal) | TGI (U251 CNS) | TGI (TK-10 renal) | TGI (CAKI-1 renal) | TGI (786-0 renal) | TGI (OVCAR-5 ovarian) | TGI (IGROV1 ovarian) | TGI (HT29 colon) | TGI (OVCAR-4 ovarian) | TGI (UACC-257 melanoma) | TGI (EKVX NSCLC) | TGI (MDA-MB-435)
1 | C/C(=N\NC(=O)c1ccncc1)c1ccccc1F | > 10 µM | > 10 µM | > 10 µM | > 10 µM | > 10 µM | > 10 µM | > 10 µM | > 10 µM | > 10 µM | > 10 µM | > 10 µM | > 10 µM | > 10 µM |  |  |  |  | 
2 | Cc1ccc(C2=C(C#N)C(=O)N3CCN=C3S2)cc1 |  | > 100 µM | > 100 µM |  | > 100 µM | > 100 µM | > 100 µM | > 100 µM | > 100 µM | > 100 µM | > 100 µM | > 100 µM | > 100 µM | > 100 µM | > 100 µM | > 100 µM | > 100 µM | > 100 µM
3 | COC(=O)C1(C(=O)OC)Cc2ccc(C)cc2C2=C1C(=O)c1ccccc1C2=O |  | 32 µM | 28.6 µM | 48.9 µM | 32.2 µM |  |  |  | > 100 µM |  | 68.9 µM | 35.5 µM | 44.3 µM | 62.2 µM | 23.7 µM | 31.2 µM | 29.4 µM | 31.4 µM
4 | CCN(CC)c1c(-c2c(N(CC)CC)c(OC(C)=O)c3sccn3c2=O)c(=O)n2ccsc2c1OC(C)=O | > 100 µM | > 100 µM | > 100 µM | > 100 µM | 39.3 µM | > 100 µM |  | > 100 µM | > 100 µM | > 100 µM | 90.1 µM | > 100 µM | > 100 µM | > 100 µM | > 100 µM | > 100 µM | > 100 µM | > 100 µM
5 | O=C(Nc1ccccc1)n1[nH]c(=O)n(-c2ccccc2)c1=O | > 100 µM | > 100 µM | > 100 µM | > 100 µM | > 100 µM | > 100 µM |  | > 100 µM | > 100 µM | > 100 µM | > 100 µM |  |  | > 100 µM | > 100 µM | > 100 µM |  | > 100 µM
6 | Cc1ccc(/C=C2\CN(C)CC3C2=NN(c2ccccc2)C3c2ccc(C)cc2)cc1 (centres undefined) |  | > 100 µM | > 100 µM | > 100 µM |  | > 100 µM | > 100 µM | > 100 µM | > 100 µM | > 100 µM | > 100 µM |  | > 100 µM | > 100 µM | > 100 µM | > 100 µM | > 100 µM | > 100 µM
7 | CC(=O)N1C(NN(C)C)CCN1c1ccccc1 (centres undefined) | > 10 µM |  | > 10 µM | > 10 µM | > 10 µM |  | > 10 µM |  | > 10 µM | > 10 µM | > 10 µM |  | > 10 µM | > 10 µM | > 10 µM | > 10 µM | > 10 µM | > 10 µM
8 | COc1ccc(OC2OC(COC(c3ccccc3)(c3ccc(OC)cc3)c3ccc(OC)cc3)C(O)C(O)C2O)cc1 (centres undefined) | > 100 µM | 17.2 µM | 16.1 µM | 11 µM | 14 µM | 4.79 µM |  | 13.3 µM |  | 16.2 µM | 5.87 µM | 20.7 µM | 20.2 µM | 5.96 µM |  | 20.1 µM | 17.3 µM | 13 µM
9 | O=S(Nc1ccccc1)c1ccc(Cl)c(Cl)c1 (centres undefined) | > 100 µM | > 100 µM | 62.5 µM | 82.9 µM |  | > 100 µM |  | 34.2 µM | > 100 µM |  | > 100 µM |  | > 100 µM | > 100 µM | > 100 µM | > 100 µM | > 100 µM | 92.9 µM
10 | CC1OC(OC2C(OC(=O)[C@@H]3CC(C)(C)C[C@@H]4C5=CC[C@@H]6[C@@]7(C)C[C@H](O)[C@H](OC8OC(CO)C(O)C(O)C8O)[C@@](C)(CO)C7[C@H](O)C[C@@]6(C)[C@]5(C)C[C@@H](O)[C@H]43)OCC(O)C2O)C(O)C(O)C1O (some centres undefined) |  |  | > 15 µM | > 15 µM | > 15 µM | > 15 µM | > 15 µM | > 15 µM | > 15 µM | > 15 µM | > 15 µM | > 15 µM | > 15 µM | > 15 µM | > 15 µM | > 15 µM | > 15 µM | > 15 µM
11 | Cc1ccc(N(C(=O)Nc2ccc(F)c(Cl)c2)C2=NCC(C)S2)cc1 (centres undefined) |  | > 100 µM | 41 µM | > 100 µM | > 100 µM | > 100 µM |  | > 100 µM | > 100 µM | > 100 µM | > 100 µM | > 100 µM | > 100 µM | > 100 µM | > 100 µM | > 100 µM | > 100 µM | 
12 | Cc1c2c(Cl)c3c(c(Cl)c2c(C)c2c(Cl)c4c(c(Cl)c12)C(c1ccccc1)(c1ccccc1)C4(c1ccccc1)c1ccccc1)C(c1ccccc1)(c1ccccc1)C3(c1ccccc1)c1ccccc1 |  | > 100 µM | > 100 µM | > 100 µM | > 100 µM | > 100 µM | > 100 µM | > 100 µM | > 100 µM | > 100 µM | > 100 µM | > 100 µM | > 100 µM | > 100 µM | > 100 µM | > 100 µM | > 100 µM | > 100 µM
13 | CC(C)(C)c1ccc(-n2c3nc(=O)n(-c4ccccc4CO)c(=O)c-3cc3ccccc32)cc1 |  | 62.9 µM | > 100 µM | > 100 µM | > 100 µM | > 100 µM | 55.2 µM | > 100 µM | > 100 µM | > 100 µM | > 100 µM | > 100 µM | > 100 µM | 86.8 µM | > 100 µM | > 100 µM | > 100 µM | 99.4 µM
14 | COC(=O)CN1SC2(SC13C(C)(C)C(=O)C3(C)C)C(C)(C)C(=O)C2(C)C | > 100 µM |  | > 100 µM | > 100 µM | > 100 µM | > 100 µM |  | > 100 µM | > 100 µM | > 100 µM | > 100 µM | > 100 µM | > 100 µM | > 100 µM | > 100 µM | > 100 µM | > 100 µM | > 100 µM
15 | CC(=O)N(C(C)=O)n1c(-c2ccccc2)n[nH]c1=O | > 100 µM | > 100 µM | > 100 µM | > 100 µM | > 100 µM | > 100 µM | > 100 µM | > 100 µM | > 100 µM |  | > 100 µM | > 100 µM | > 100 µM | > 100 µM | > 100 µM | > 100 µM | > 100 µM | > 100 µM
